Values after ≈ are worked out from the molar mass of the structure shown.
Experiments:
S. aureus ATCC 10390 [1] = assay: Estimated MIC, solution-phase microdilution absorbance assay with crude macroarray spot stock solutions; assay type: cell-based, Staphylococcus aureus; settings: for MIC: Staphylococcus aureus, ATCC10390, 12 h
Procedure: Spots from a new 69 member chalcone macroarray as well as the three heterocyclic macroarrays prepared earlier were punched out, cleaved, and eluted with acetonitrile. The resulting solutions were concentrated to a residue that was taken up in DMSO to form 2 mM stock solutions.
From the stock solutions, microdilution assays in a 96 well plate starting at 50 μM were performed in quadruplicate. Each well contained 5 μL of the stock solution as well as 195 μL of a S. aureus culture. The turbidity of each well was measured after incubating 12 hours using a standard plate reader. Active compounds can be further diluted and the assay repeated.
To acquire more quantitative antibacterial activity data about our compounds and verify our on-support assay results, we performed solution-phase absorbance assays that provided estimates of the minimum inhibitory concentration (MIC) of each macroarray member against S. aureus. Stock solutions (ca. 2 mM) were generated by cleaving and eluting 198 individual compounds from chalcone (3) and heterocyclic macroarrays (5, 7, and 8). […] The good overall purities of the crude macroarray compounds allowed for reasonable estimations of MICs.
(§1) For estimated MIC determination, DMSO was added to the dried compound residue obtained from a single spot to afford ca. 100 μL of a 2 mM stock solution. Aliquots (5 μL) of these solutions were added to a 96-well plate, followed by 195 μL of diluted S. aureus 10390 (10^6 CFUs/mL) to yield ca. 50 μM final concentrations. The plates were swirled for 1 h to ensure compound dissolution, incubated for 12 h at 37° C., and the absorbance at 595 nm was recorded using a plate reader. […] Actual MIC values were determined for lead compounds resynthesized in solution using an analogous procedure with solutions of known concentration (see).
Preparation of spot samples and controls. An aliquot of DMSO (ca. 100 μL depending on the loading of the parent hydroxyacetophenone) was added to the dried compound residue obtained after TFA cleavage and elution from a single spot. This afforded a 2.0 mM “spot stock” solution for each spot. A small aliquot of each “spot stock” solution was saved for subsequent LC-MS analysis.
For estimated MIC screens, 5.0 μL portions of the “spot stock” solutions were added to the appropriate wells in a sterile, polystyrene 96-well plate to yield ca. 50 μM solutions (dependent on the initial loading of hydroxyacetopheneone and compound purity). To the positive and negative control wells, 5.0 μL of DMSO were added (positive controls contained bacteria but no compound, while negative controls had neither compound nor bacteria). All estimated MIC assays were performed in quadruplicate. Note: the MIC value is defined as the lowest concentration where no bacterial growth occurs.
Representative estimated MIC assay procedure. This assay procedure is based in part on the method reported by Strøm et al.^xiii A 400 μL portion of overnight S. aureus 10390 culture was diluted with 100 mL of sterile LB broth to give ca. 10^6 CFUs per mL. Aliquots (195 μL) of this solution were added to all of the wells in a sterile 96-well plate (except for the negative control wells; 195 μL of sterile LB broth were added to these wells). The plates were placed on an orbital shaker table and gently swirled for 1 h to ensure compound dissolution, and then incubated (without shaking) for 12 h at 37° C. The absorbance at 595 nm was recorded using a plate reader.
The original “spot stock” solutions of these compounds were diluted with DMSO to give ca. 25 and 13 μM final concentrations and tested for inhibitory activities using the procedure described above.

S. aureus ATCC 10390 [2] = assay: MIC determination with authentic compounds resynthesized in solution; assay type: cell-based, Staphylococcus aureus; settings: Staphylococcus aureus, ATCC10390
Procedure: as §1
(§2) Dose response growth inhibition curves were determined for each active compound (resynthesized in solution) against S. aureus 10390 (SA) and methicillin-resistant S. aureus 33591 (MRSA). […] MIC assays were performed in quadruplicate.

[3] = tested on: Methicillin-resistant S. aureus ATCC 33591 (MRSA); assay: as above; assay type: cell-based; settings: Staphylococcus aureus; Table 3; authentic sample, only trans isomers of chalcones; error reflects step size in the serial dilutions
Procedure: as §1, §2

[4] = tested on: B. subtilis subsp. spizizenii ATCC 6633; assay: MIC determination, species selectivity; assay type: cell-based; settings: Bacillus subtilis, ATCC6633; authentic sample, only trans isomers of chalcones; error reflects step size
Procedure: (§3) Each compound from Table 3 was tested for inhibitory activity at 2.5, 5, 7.5, 10, 15, 20, 25, and 30 μM in the susceptible overlaid strains: B. subtilis ATCC 6633, S. epidermidis ATCC 12228, and K. pneumoniae ATCC 4352. MIC assays were run in quadruplicate as described above (with shaking).

K. pneumoniae ATCC 4352 = assay: MIC determination, species selectivity; assay type: cell-based; settings: Klebsiella pneumoniae, ATCC4352; authentic sample, only trans isomers of chalcones; error reflects step size
Procedure: as §3

[5] = tested on: S. epidermidis ATCC 12228; assay: MIC determination, species selectivity; assay type: cell-based; settings: Staphylococcus epidermidis, ATCC12228; authentic sample, only trans isomers of chalcones; error reflects step size
Procedure: as §3

K. pneumoniae = assay: Agar overlay TTC assay, compound overlays; assay type: cell-based, Klebsiella pneumoniae; settings: 30 nanomole aliquots of purified compound on filter paper
S. aureus ATCC 10390 [6] = assay: Kirby-Bauer disk diffusion assay on compound spots from cleaved macroarray; assay type: cell-based, Staphylococcus aureus; settings: loadings 30 μg/spot, 18 h incubation
Procedure: While the heterocyclic libraries were being synthesized, the chalcone macroarrays were analyzed using various direct assay techniques such as the Kirby-Bauer disk diffusion assay (FIG. 2E). Bauer, A. W.; Kirby, […].; Turck, M. Technical Bulletin of the Registry of Medical Technologists 1966, 36, 49-52. For this assay, the macroarray members are punched out from the membrane, cleaved from the support with TFA vapor, neutralized with ammonia vapor, and then placed on an agar bed inoculated with S. aureus. After incubating overnight, different diameters of zones of inhibition are measured as a factor of potency as well as solubility in the medium. Ammonia vapor neutralization was key in the disk diffusion assay, otherwise residual TFA vapor created a false positive signature. However, in this method, macroarrays have to be made in triplicate one for a replicate and one for compound characterization. We first evaluated test chalcone macroarrays (3) in antibacterial assays against S. aureus. Because the macroarrays were prepared on cellulose filter paper, we had convenient access to the compounds in disk form for standard disk diffusion assays. Compound spots were punched out of the macroarrays, subjected to vapor phase cleavage with acid (TFA), and neutralized (NH3) to afford disks containing ca. 30 μg of adsorbed compound [8]. These disks were manually placed on lawns of S. aureus, and zones of inhibition were measured after an 18 h incubation period. […] However, this antibacterial assay format had drawbacks: (1) the entire sample of compound was consumed during the assay, and thus replicate arrays needed to be synthesized to confirm activity, and (2) manipulating large numbers of compound disks was relatively labor intensive. Compound spots were cleaved with TFA and neutralized with NH3 as described herein. […] Compound spots were placed onto the agar, the plate was incubated at 37° C. for 18 h, and the diameters of the zones of inhibition were measured. […] Compound spots were subjected to the TFA cleavage conditions described above. The spots were next subjected to NH3 vapor to neutralize any remaining TFA. […] Vials containing the spots (or intact macroarrays) were placed inside a small evaporating dish, and this was placed into the NH4OH solution. The Pyrex dish was covered, and NH3 vapor was allowed to slowly diffuse into the vials. After 1 h, the vials were removed from the NH3 chamber, and the spots were allowed to stand open in a fume hood for at least 15 min to vent prior to analysis in the following assays. This afforded dry, paper disks containing adsorbed compound. […] The plates were removed, and the diameters of the zones of inhibition were measured in mm using a ruler (see FIG. 1A).

[7] = Table 2, serial dilution of stock solutions obtained by SPOT-synthesis, read-out: estimated MIC range
[8] = Table 3, serial dilution of spot stock solutions of crude macroarray compounds, read-out: S. aureus Estimated MIC range
[9] = Table 2, authentic sample synthesized according to standard techniques, read-out: observed MIC
[10] = Table 3, authentic sample, only trans isomers of chalcones, error reflects step size in the serial dilutions, read-out: S. aureus MIC

Structure (SMILES)	MIC (S. aureus ATCC 10390 [1]; [7])	MIC (S. aureus ATCC 10390 [1]; [8])	MIC (S. aureus ATCC 10390 [2]; [9])	MIC (S. aureus ATCC 10390 [2]; [10])	MIC [3]	MIC [4]	MIC (K. pneumoniae ATCC 4352)	MIC [5]	susceptibility in agar overlay TTC assay (K. pneumoniae)	Zones of inhibition (S. aureus ATCC 10390 [6])	inhibition of S. aureus at the 12.5 μM level (S. aureus ATCC 10390 [1]; 12.5 μM, macroarray stock solutions diluted four fold)
O=C(/C=C/c1ccc(Cl)cc1Cl)c1ccc(O)cc1 [Compound 4At, 2,4-dichloro-4′-hydroxychalcone]	25 to 50 µM (≈ 7.33 to 14.7 µg/mL)	25 to 50 µM (≈ 7.33 to 14.7 µg/mL)	18.8 ± 1.2 µM (≈ 5.51 µg/mL)	21.2 ± 1.2 µM (≈ 6.21 µg/mL)	18.7 ± 1.2 µM (≈ 5.48 µg/mL)	27.5 ± 2.5 µM (≈ 8.06 µg/mL)	> 250 µM	27.5 ± 2.5 µM (≈ 8.06 µg/mL)	weakly susceptible	–	–
O=C(/C=C/c1cccc(Br)c1)c1cccc(O)c1 [Compound 4Be, 3-bromo-3′-hydroxychalcone]	25 to 50 µM (≈ 7.58 to 15.2 µg/mL)	25 to 50 µM (≈ 7.58 to 15.2 µg/mL)	24 ± 2 µM (≈ 7.28 µg/mL)	21 ± 1 µM (≈ 6.37 µg/mL)	20 ± 1 µM (≈ 6.06 µg/mL)	22.5 ± 2.5 µM (≈ 6.82 µg/mL)	40 ± 10 µM (≈ 12.1 µg/mL)	22.5 ± 2.5 µM (≈ 6.82 µg/mL)	weakly susceptible	–	–
O=C(/C=C/c1cccc(Cl)c1Cl)c1cccc(O)c1 [Compound 4Bl, 2,3-dichloro-3′-hydroxychalcone]	12.5 to 25 µM (≈ 3.66 to 7.33 µg/mL)	12.5 to 25 µM (≈ 3.66 to 7.33 µg/mL)	13.8 ± 1.2 µM (≈ 4.05 µg/mL)	15 ± 0.5 µM (≈ 4.4 µg/mL)	15 ± 0.5 µM (≈ 4.4 µg/mL)	22.5 ± 2.5 µM (≈ 6.6 µg/mL)	> 250 µM	12.5 ± 2.5 µM (≈ 3.66 µg/mL)	weakly susceptible	19 mm	–
O=C(/C=C/c1c(Cl)ccc(Cl)c1Cl)c1cccc(O)c1 [Compound 4Bo, 3′-hydroxy-2,3,6-trichlorochalcone]	6.25 to 12.5 µM (≈ 2.05 to 4.09 µg/mL)	< 12.5 µM	6.5 ± 0.5 µM (≈ 2.13 µg/mL)	10 ± 1 µM (≈ 3.28 µg/mL)	10 ± 1 µM (≈ 3.28 µg/mL)	8.8 ± 1.2 µM (≈ 2.88 µg/mL)	> 250 µM	12.5 ± 2.5 µM (≈ 4.09 µg/mL)	weakly susceptible	–	complete inhibition
COc1cc(C(=O)/C=C/c2ccc(Br)cc2)ccc1O [Compound 4Cf, 4-bromo-4′-hydroxy-3′-methoxy-chalcone]	> 50 µM	> 50 µM	> 250 µM	> 250 µM	> 250 µM	–	–	–	–	< 1 mm	–
CN[C@H](CC(C)C)C(=O)N[C@H]1C(=O)N[C@@H](CC(N)=O)C(=O)N[C@H]2C(=O)N[C@H]3C(=O)N[C@H](C(=O)N[C@H](C(=O)O)c4cc(O)cc(O)c4-c4cc3ccc4O)[C@H](O)c3ccc(c(Cl)c3)Oc3cc2cc(c3O[C@@H]2O[C@H](CO)[C@@H](O)[C@H](O)[C@H]2O[C@H]2C[C@](C)(N)[C@H](O)[C@H](C)O2)Oc2ccc(cc2Cl)[C@H]1O [vancomycin, reference compound]	–	–	–	–	–	–	–	–	–	20 mm	–

— patent publication US8227616B2, “Cyanopyridine antibacterial agents and methods of use thereof” (Wisconsin Alumni Research Foundation, priority 2006, dated 2012)
